Reference: the OligoGym collection
HELM strings list units from the 5' end as sugar, base in round brackets, then linkage (d deoxyribose, r ribose, m 2'-O-methyl, p phosphodiester). Strings are as the collection lists them; they lack the last nucleoside at the 3' end of the tested compound. [moe] = 2'-O-(2-methoxyethyl) (MOE); [sp] = phosphorothioate linkage; [m5C] = 5-methylcytosine

Molecular target: APP
Assay: mouse, dose not given
Settings: ASO

RNA1{[moe](A)[sp].[moe](A)p.[moe](A)p.[moe]([m5C])p.[moe](T)[sp].d([m5C])[sp].d(T)[sp].d(A)[sp].d([m5C])[sp].d([m5C])[sp].d([m5C])[sp].d([m5C])[sp].d(T)[sp].d([m5C])[sp].d(G)[sp].[moe](G)p.[moe](A)p.[moe](A)[sp].[moe]([m5C])}$$$$ (last 3' nucleoside missing)
3 h FOB score: 1 score 0-7

RNA1{[moe](A)[sp].[moe](A)p.[moe](G)p.[moe](G)p.[moe](G)[sp].d([m5C])[sp].d(A)[sp].d(T)[sp].d([m5C])[sp].d(A)[sp].d([m5C])[sp].d(T)[sp].d(T)[sp].d(A)[sp].d([m5C])[sp].[moe](A)p.[moe](A)p.[moe](A)[sp].[moe]([m5C])}$$$$ (last 3' nucleoside missing)
3 h FOB score: 0 score 0-7

RNA1{[moe](A)[sp].[moe](A)p.[moe](G)p.[moe](G)p.[moe]([m5C])[sp].d(A)[sp].d(T)[sp].d(G)[sp].d([m5C])[sp].d(A)[sp].d(T)[sp].d(T)[sp].d(T)[sp].d(T)[sp].d(T)[sp].[moe](A)p.[moe](G)p.[moe](G)[sp].[moe](G)}$$$$ (last 3' nucleoside missing)
3 h FOB score: 1.67 score 0-7

RNA1{[moe](A)[sp].[moe](A)p.[moe](G)p.[moe]([m5C])p.[moe](T)[sp].d(T)[sp].d(A)[sp].d([m5C])[sp].d(A)[sp].d(T)[sp].d([m5C])[sp].d(A)[sp].d(T)[sp].d(T)[sp].d(T)[sp].[moe](T)p.[moe]([m5C])p.[moe](T)[sp].[moe](T)}$$$$ (last 3' nucleoside missing)
3 h FOB score: 1.33 score 0-7

RNA1{[moe](A)[sp].[moe](A)p.[moe]([m5C])p.[moe](T)p.[moe]([m5C])[sp].d(G)[sp].d(A)[sp].d(A)[sp].d([m5C])[sp].d([m5C])[sp].d(A)[sp].d([m5C])[sp].d([m5C])[sp].d(T)[sp].d([m5C])[sp].[moe](T)p.[moe](T)p.[moe]([m5C])[sp].[moe]([m5C])}$$$$ (last 3' nucleoside missing)
3 h FOB score: 0 score 0-7

RNA1{[moe](A)[sp].[moe](G)p.[moe](A)p.[moe](T)p.[moe](A)[sp].d([m5C])[sp].d(T)[sp].d(T)[sp].d(G)[sp].d(T)[sp].d([m5C])[sp].d(A)[sp].d(A)[sp].d([m5C])[sp].d(G)[sp].[moe](G)p.[moe]([m5C])p.[moe](A)[sp].[moe](T)}$$$$ (last 3' nucleoside missing)
3 h FOB score: 2.33 score 0-7

RNA1{[moe](A)[sp].[moe](G)p.[moe](G)p.[moe](A)p.[moe](A)[sp].d([m5C])[sp].d(T)[sp].d([m5C])[sp].d(G)[sp].d(A)[sp].d(A)[sp].d([m5C])[sp].d([m5C])[sp].d(A)[sp].d([m5C])[sp].[moe]([m5C])p.[moe](T)p.[moe]([m5C])[sp].[moe](T)}$$$$ (last 3' nucleoside missing)
3 h FOB score: 1 score 0-7

RNA1{[moe](A)[sp].[moe](G)p.[moe](G)p.[moe](A)p.[moe]([m5C])[sp].d(A)[sp].d(T)[sp].d(T)[sp].d([m5C])[sp].d(A)[sp].d(T)[sp].d(T)[sp].d(T)[sp].d(T)[sp].d(T)[sp].[moe](G)p.[moe](A)p.[moe]([m5C])[sp].[moe]([m5C])}$$$$ (last 3' nucleoside missing)
3 h FOB score: 1 score 0-7

RNA1{[moe](A)[sp].[moe](G)p.[moe](G)p.[moe](T)p.[moe]([m5C])[sp].d(T)[sp].d([m5C])[sp].d(T)[sp].d(A)[sp].d(T)[sp].d(A)[sp].d(T)[sp].d(T)[sp].d(T)[sp].d(T)[sp].[moe](G)p.[moe](G)p.[moe](T)[sp].[moe]([m5C])}$$$$ (last 3' nucleoside missing)
3 h FOB score: 0.33 score 0-7

RNA1{[moe](A)[sp].[moe](G)p.[moe](T)p.[moe](A)p.[moe]([m5C])[sp].d(A)[sp].d(T)[sp].d(A)[sp].d(T)[sp].d(T)[sp].d([m5C])[sp].d(A)[sp].d(T)[sp].d(T)[sp].d([m5C])[sp].[moe](A)p.[moe](A)p.[moe](T)[sp].[moe]([m5C])}$$$$ (last 3' nucleoside missing)
3 h FOB score: 0 score 0-7

RNA1{[moe](A)[sp].[moe](G)p.[moe]([m5C])p.[moe](A)p.[moe](T)[sp].d([m5C])[sp].d(T)[sp].d(T)[sp].d(T)[sp].d(T)[sp].d(A)[sp].d([m5C])[sp].d(T)[sp].d(A)[sp].d(T)[sp].[moe]([m5C])p.[moe](T)p.[moe](G)[sp].[moe]([m5C])}$$$$ (last 3' nucleoside missing)
3 h FOB score: 0.67 score 0-7

RNA1{[moe](A)[sp].[moe](G)p.[moe]([m5C])p.[moe](T)p.[moe](T)[sp].d(A)[sp].d([m5C])[sp].d(A)[sp].d(T)[sp].d([m5C])[sp].d(A)[sp].d(T)[sp].d(T)[sp].d(T)[sp].d(T)[sp].[moe]([m5C])p.[moe](T)p.[moe](T)[sp].[moe](G)}$$$$ (last 3' nucleoside missing)
3 h FOB score: 1 score 0-7

RNA1{[moe](A)[sp].[moe](T)p.[moe](A)p.[moe](T)p.[moe](T)p.[moe](T)p.d(G)[sp].d(T)[sp].d([m5C])[sp].d(A)[sp].d(A)[sp].d([m5C])[sp].d([m5C])[sp].d([m5C])[sp].d(A)[sp].d(G)[sp].[moe](A)p.[moe](A)[sp].[moe]([m5C])}$$$$ (last 3' nucleoside missing)
3 h FOB score: 1 score 0-7

RNA1{[moe](A)[sp].[moe](T)p.[moe](G)p.[moe](G)p.[moe](A)[sp].d(T)[sp].d([m5C])[sp].d(T)[sp].d(G)[sp].d(A)[sp].d(A)[sp].d(T)[sp].d([m5C])[sp].d([m5C])[sp].d([m5C])[sp].[moe](A)p.[moe]([m5C])p.[moe](T)[sp].[moe](T)}$$$$ (last 3' nucleoside missing)
3 h FOB score: 1 score 0-7

RNA1{[moe](A)[sp].[moe](T)p.[moe](G)p.[moe](T)p.[moe](G)[sp].d(A)[sp].d(T)[sp].d(T)[sp].d(T)[sp].d([m5C])[sp].d(A)[sp].d([m5C])[sp].d(T)[sp].d(A)[sp].d(A)[sp].[moe]([m5C])p.[moe]([m5C])p.[moe](G)[sp].[moe](G)}$$$$ (last 3' nucleoside missing)
3 h FOB score: 0 score 0-7

RNA1{[moe](A)[sp].[moe](T)p.[moe](G)p.[moe](T)p.[moe](G)p.[moe](A)[sp].d(T)[sp].d(T)[sp].d(T)[sp].d([m5C])[sp].d(A)[sp].d([m5C])[sp].d(T)[sp].d(A)[sp].d(A)[sp].d([m5C])[sp].[moe]([m5C])p.[moe](G)[sp].[moe](G)}$$$$ (last 3' nucleoside missing)
3 h FOB score: 0 score 0-7

RNA1{[moe](A)[sp].[moe](T)p.[moe](G)p.[moe](T)p.[moe](T)[sp].d([m5C])[sp].d(A)[sp].d(T)[sp].d(T)[sp].d([m5C])[sp].d(T)[sp].d([m5C])[sp].d(A)[sp].d(T)[sp].d([m5C])[sp].[moe]([m5C])p.[moe]([m5C])p.[moe]([m5C])[sp].[moe](A)}$$$$ (last 3' nucleoside missing)
3 h FOB score: 1 score 0-7

RNA1{[moe](A)[sp].[moe](T)p.[moe](G)p.[moe]([m5C])p.[moe](A)[sp].d(T)[sp].d([m5C])[sp].d(A)[sp].d(A)[sp].d(T)[sp].d(T)[sp].d([m5C])[sp].d([m5C])[sp].d(T)[sp].d(T)[sp].[moe](T)p.[moe](G)p.[moe](G)[sp].[moe](G)}$$$$ (last 3' nucleoside missing)
3 h FOB score: 0 score 0-7

RNA1{[moe](A)[sp].[moe](T)p.[moe](T)p.[moe]([m5C])p.[moe](T)[sp].d(G)[sp].d(G)[sp].d(A)[sp].d([m5C])[sp].d(A)[sp].d(T)[sp].d(T)[sp].d([m5C])[sp].d(A)[sp].d(T)[sp].[moe](G)p.[moe](T)p.[moe](G)[sp].[moe]([m5C])}$$$$ (last 3' nucleoside missing)
3 h FOB score: 1 score 0-7

RNA1{[moe](A)[sp].[moe](T)p.[moe](T)p.[moe]([m5C])p.[moe](T)[sp].d([m5C])[sp].d(T)[sp].d(T)[sp].d(A)[sp].d(T)[sp].d(A)[sp].d(T)[sp].d(T)[sp].d([m5C])[sp].d([m5C])[sp].[moe](T)p.[moe](T)p.[moe](A)[sp].[moe]([m5C])}$$$$ (last 3' nucleoside missing)
3 h FOB score: 0.5 score 0-7

RNA1{[moe](A)[sp].[moe](T)p.[moe]([m5C])p.[moe](A)p.[moe]([m5C])[sp].d([m5C])[sp].d(A)[sp].d(G)[sp].d(T)[sp].d(T)[sp].d(T)[sp].d([m5C])[sp].d(A)[sp].d(T)[sp].d(A)[sp].[moe]([m5C])p.[moe](A)p.[moe]([m5C])[sp].[moe](T)}$$$$ (last 3' nucleoside missing)
3 h FOB score: 0.25 score 0-7

RNA1{[moe](A)[sp].[moe]([m5C])p.[moe](A)p.[moe](T)p.[moe](T)[sp].d(A)[sp].d(T)[sp].d(T)[sp].d([m5C])[sp].d(T)[sp].d(A)[sp].d(T)[sp].d(A)[sp].d(A)[sp].d(A)[sp].[moe](T)p.[moe](G)p.[moe](G)[sp].[moe](A)}$$$$ (last 3' nucleoside missing)
3 h FOB score: 0 score 0-7

RNA1{[moe](A)[sp].[moe]([m5C])p.[moe](A)p.[moe](T)p.[moe]([m5C])[sp].d(A)[sp].d(T)[sp].d(A)[sp].d(T)[sp].d(T)[sp].d([m5C])[sp].d(T)[sp].d(T)[sp].d(A)[sp].d([m5C])[sp].[moe](T)p.[moe](G)p.[moe](T)[sp].[moe](T)}$$$$ (last 3' nucleoside missing)
3 h FOB score: 0 score 0-7

RNA1{[moe](A)[sp].[moe]([m5C])p.[moe](A)p.[moe]([m5C])p.[moe](A)[sp].d([m5C])[sp].d(A)[sp].d(A)[sp].d(A)[sp].d([m5C])[sp].d(T)[sp].d([m5C])[sp].d(T)[sp].d(A)[sp].d([m5C])[sp].[moe]([m5C])p.[moe]([m5C])p.[moe]([m5C])[sp].[moe](T)}$$$$ (last 3' nucleoside missing)
3 h FOB score: 0.5 score 0-7

RNA1{[moe](A)[sp].[moe]([m5C])p.[moe](A)p.[moe]([m5C])p.[moe]([m5C])[sp].d(G)[sp].d([m5C])[sp].d([m5C])[sp].d([m5C])[sp].d(A)[sp].d([m5C])[sp].d([m5C])[sp].d(A)[sp].d(T)[sp].d(G)[sp].[moe](A)p.[moe](G)p.[moe](T)[sp].[moe]([m5C])}$$$$ (last 3' nucleoside missing)
3 h FOB score: 1 score 0-7

RNA1{[moe](A)[sp].[moe]([m5C])p.[moe](G)p.[moe](G)p.[moe](A)[sp].d([m5C])[sp].d(T)[sp].d(T)[sp].d(T)[sp].d(T)[sp].d(T)[sp].d(T)[sp].d([m5C])[sp].d(T)[sp].d(T)[sp].[moe]([m5C])p.[moe](T)p.[moe](T)[sp].[moe](G)}$$$$ (last 3' nucleoside missing)
3 h FOB score: 0 score 0-7
